According to EP0516034A1, “Pharmaceutical compositions with immunosuppresive properties” (FIDIA S.p.A., priority 1991, dated 1992):

How the values were obtained:
Format in all cases: cell-based, human
[1] = system: PBMC; assay: DNA synthesis ([3H]thymidine incorporation) in PHA-stimulated PBMC; settings: PBMC cultured 72 hours with PHA 1 µg/ml; for inhibition of DNA synthesis: result in words
Experimental: The PBMCs were obtained by standard density gradient centrifugation of heparinized human venous blood through a Ficoll-Hypaque cushion. The cells were composed of 90% lymphocytes and 10% monocytes as assessed by acridine orange staining.
DNA Synthesis. The cells were re-suspended in RPMI + 5% FCS and spread on 3072 Falcon microtiter plates at a density of 10⁵ cells in 0.2 ml of final volume. They were cultured for 72 hours at 37°C with PHA 1 µg/ml in the presence or absence of phospholipids. The cells were marked with 1 uCi/well of [³H]thymidine for the last 18 hours culture before being collected on filter paper and counted in a scintillation counter.

[2] = system: IL-2 receptor; assay: Flow cytometry of IL-2 receptor expression on PHA-stimulated PBMC; settings: 72 hours, PHA 1 µg/ml, PS 60 nmol/10⁶ cells; PHA alone 77%
Experimental: (§1) To confirm the DNA synthesis parameter data obtained, a second lymphocyte activity parameter was analysed - the expression of the IL-2 and transferrin receptors on the cell membrane.
(§2) To this purpose, after incubation with PHA 1 µg/ml for 72 hours in the presence or absence of PS, the cells were stained with fluorescent monoclonal antibodies against the above receptor, and then analysed on a FAC Star (Beckton-Dickinson) flow cytometer equipped with an argon ion laser operating at 480 nm and 200 mw.
(§3) 10⁵ PBMC were cultured for 72 hours with PHA 1 µg/ml in the presence or absence of PS 60 nmol/10⁶ cells. Fluorescence intensity (receptor expression) and light diffusion (cell size) were measured using flow cytometry. The data are reported as percentage of cells located in the shown region.

[3] = system: PBMC; assay: Trypan blue exclusion test of cell viability; settings: PHA activated PBMC
Experimental: To exclude cytotoxic effect of used derivatives, cell viability (> 99%) was tested before, during, and after the incubation by the trypan blue exclusion test.

[4] = system: transferrin receptor; assay: Flow cytometry of transferrin receptor expression on PHA-stimulated PBMC; settings: 72 hours, PHA 1 µg/ml, PS 60 nmol/10⁶ cells; PHA alone 54%
Experimental: as §1, §2, §3

Molecule	inhibition of DNA synthesis [1]	also measured
phosphatidylglycerol [PG, reference compound]	totally inactive	
CCCCCCCCCCCCCC(=O)OC[C@H](COP(=O)(O)OC[C@H](N)C(=O)O)OC(=O)CCCCCCCCCCCCC [dimyristoyl PS, dimyristoyl-PS, reference compound]	do not inhibit DNA synthesis, but slightly stimulate it	
phosphatidic acid [PA, reference compound]	totally inactive	
CCCCCCCC/C=C\CCCCCCCCOCC(COCCCCCCCC/C=C\CCCCCCCC)OP(=O)(O)OC[C@H](N)C(=O)O [PS-S10, 1,3-dioleylglycero-2-phosphoryl-L-serine]	same activity as PS containing L-serine	
phosphatidylcolin [PC, reference compound]	totally inactive	
CCCCCCCC/C=C\CCCCCCCC(=O)OC[C@H](COP(=O)(O)OC[C@H](N)C(=O)O)OC(=O)CCCCCCC/C=C\CCCCCCCC [Dioleyl PS, dioleyl-PS]	same activity as PS containing L-serine	
CCCCCCCCCCCCCCCC(=O)OCC(COC(=O)CCCCCCCCCCCCCCC)OP(=O)(O)OC[C@H](N)C(=O)O [PS-S1, 1,3-dipalmitoylglycero-2-phosphoryl-L-serine, reference compound]	do not inhibit DNA synthesis, but slightly stimulate it	
phosphatidylserine [PS]	marked inhibition	lymphocytes expressing IL-2 receptors [2]: 15%; Cell viability [3]: not affected; lymphocytes expressing transferrin receptors [4]: 20%; IC50 ([1]; corresponds to 30 nmol PS/10⁶ cells, read-out: 50% of the maximum effect, concentration of PS in the medium): 15 µM; 50% of the maximum effect (inhibition of DNA synthesis) ([1]; phospholipid as liposomes): 30 nmol/10⁶ cells
phosphatidylinositol [PI]	active	
CCCCCCCCCCCCCCCC(=O)OC[C@H](COP(=O)(O)OC[C@H](N)C(=O)O)OC(=O)CCCCCCCCCCCCCCC [dipalmitoyl PS, dipalmitoyl-PS, reference compound]	do not inhibit DNA synthesis, but slightly stimulate it	
